This note sets out measurements from patent US8476463B2 (BASF SE, priority 2008, dated 2013).

The data set can be described thus: Temperature-dependent solubility (saturation concentration) of fumaric acid in di-n-butyl phthalate absorbent. Type of data set: physicochemical. An excerpt: The analysis can be effected, for example, by means of calibrated gas chromatography. For calibration, preference is given to using an internal standard, for example diethylene glycol dimethyl ether. Before the gas chromatography analysis, the sample is generally homogenized, i.e. taken up in a solvent. One example of a solvent entirely suitable for this purpose is N,N-dimethylformamide. […] Particularly suitable separating columns are capillary columns with 100% dimethylpolysiloxane (e.g. DB-1 from Agilent) or (14% cyanopropylphenyl)methylpolysiloxane (e.g. DB-1701 from Agilent), preferably each of length 60 m, internal diameter 0.32 mm and film thickness 1 μm.
The syringe attachment filter used is a membrane filter of pore width 0.2 micrometer. […] Its concentration is determined analogously to the analysis method described in the determination of c(FA, desorption column outlet). […] When establishing the new, higher temperature, the temperature of the suspension must not overshoot the desired temperature by more than 3° C. When the desired temperature has been established, the mixture is then stirred at constant temperature at least for a duration of 4 hours. • (6) After this continued stirring time, another sample is taken, as described in point (4). In each sampling, generally a new syringe attachment filter is used.
Examples of secondary components caused by the industrial process include water, maleic anhydride, maleic acid, acrylic acid, methacrylic acid, acetic acid, propionic acid, phthalic anhydride and phthalic acid. […] The continuous line corresponds to the fitted curve.

SMILES strings stand for the structures.

On to `O=C(O)/C=C/C(=O)O` [fumaric acid], for which the “saturation concentration of fumaric acid in the solution” value is, setting by setting: (mixture of dibutyl phthalate and fumaric acid, 50° C.) 250 ppm by weight; (solution from industrially operated maleic anhydride plant (dibutyl phthalate >98.5% by weight), 30° C.) 250 ppm by weight; (solution from industrially operated maleic anhydride plant (dibutyl phthalate >98.5% by weight), 50° C.) 400 ppm by weight.
